Measurements as given in patent US11453671B2, “Pyrazolopyrimidine inhibitors of JAK kinases and uses thereof” (Genentech, Inc., priority 2020, dated 2022).

Assays:
HEK-293T cells = assay: Cell cytotoxicity assay HEK-293T (CellTiter-Glo, 72 hours); type: cell-based; details: Table 3; 72 hours, top concentration of 50 μM; read-out: Cytotox K-293 EC50
Summary of the method: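 HEK-293T or Jurkat E6-1 cells plated at 450 cells/well were treated the next day with a 10-point titration from 50 μM top (0.5% DMSO final). After 72 h at 37° C, viability was read by CellTiter-Glo luminescence.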

A549 cells = assay: Cell cytotoxicity assay A549 (CellTiter-Glo, 72 hours); type: cell-based; details: Table 3; 72 hours, top concentration of 50 μM; read-out: Cytotox A549 EC50
Summary of the method: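 A549 cells were plated overnight, then exposed for 72 h at 37 °C to a 10-point compound titration (top 50 μM, 0.5% DMSO final). Viability was read as CellTiter-Glo luminescence after 20 min at room temperature.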

CC(CO)S(=O)(=O)c1ccc(OC(F)F)c(-c2nn(C)cc2NC(=O)c2cnn3cccnc23)c1 (single isomer, unassigned) [Example 24, N-[3-[2-(difluoromethoxy)-5-(2-hydroxy-1-methyl-ethyl)sulfonyl-phenyl]-1-methyl-pyrazol-4-yl]pyrazolo[1,5-a]pyrimidine-3-carboxamide]
EC50 (HEK-293T cells): 22 µM
EC50 (A549 cells): ≥ 50 µM
